In one assay the target is T1, mouse WT SLACK (Mus musculus, UniProt Q6ZPR4).
T1 construct: expressed in transfected cells; host or cells: CHO
T1 sequence (Q6ZPR4 1-1224): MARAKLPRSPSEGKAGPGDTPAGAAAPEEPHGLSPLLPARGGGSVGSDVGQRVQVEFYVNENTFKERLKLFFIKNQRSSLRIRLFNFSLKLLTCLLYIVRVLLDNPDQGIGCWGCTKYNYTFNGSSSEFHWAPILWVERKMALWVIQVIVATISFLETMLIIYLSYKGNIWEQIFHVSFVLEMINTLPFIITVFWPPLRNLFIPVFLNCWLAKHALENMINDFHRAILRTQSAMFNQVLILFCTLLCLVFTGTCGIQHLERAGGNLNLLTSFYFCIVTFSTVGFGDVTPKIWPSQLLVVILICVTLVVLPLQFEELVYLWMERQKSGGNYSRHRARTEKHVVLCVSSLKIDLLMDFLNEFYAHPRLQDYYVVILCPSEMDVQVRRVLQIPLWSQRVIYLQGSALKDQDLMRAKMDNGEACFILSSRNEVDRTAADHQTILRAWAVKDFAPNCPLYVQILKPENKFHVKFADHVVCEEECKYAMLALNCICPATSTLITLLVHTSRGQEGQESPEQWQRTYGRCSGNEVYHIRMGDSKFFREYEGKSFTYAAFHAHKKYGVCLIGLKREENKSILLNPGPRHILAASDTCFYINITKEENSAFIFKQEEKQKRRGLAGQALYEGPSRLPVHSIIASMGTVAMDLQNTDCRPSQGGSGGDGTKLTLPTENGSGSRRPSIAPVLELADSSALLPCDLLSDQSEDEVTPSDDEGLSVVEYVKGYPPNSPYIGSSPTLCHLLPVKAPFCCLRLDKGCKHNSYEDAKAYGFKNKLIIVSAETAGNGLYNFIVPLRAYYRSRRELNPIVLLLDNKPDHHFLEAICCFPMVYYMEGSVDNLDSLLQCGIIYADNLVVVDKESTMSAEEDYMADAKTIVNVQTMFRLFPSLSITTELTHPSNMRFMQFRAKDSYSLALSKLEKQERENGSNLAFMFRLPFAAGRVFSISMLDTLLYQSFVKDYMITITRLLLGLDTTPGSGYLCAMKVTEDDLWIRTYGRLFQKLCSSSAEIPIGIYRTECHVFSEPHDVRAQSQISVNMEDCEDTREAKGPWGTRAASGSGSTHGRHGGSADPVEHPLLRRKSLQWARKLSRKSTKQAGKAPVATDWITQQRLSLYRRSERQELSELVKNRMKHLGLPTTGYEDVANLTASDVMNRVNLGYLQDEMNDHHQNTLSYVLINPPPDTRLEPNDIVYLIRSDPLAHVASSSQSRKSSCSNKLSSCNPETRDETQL
In words: Whole-cell APC in CHO cells stably expressing mouse WT SLACK. The following applies: for IC50: APC, CHO cells; for Imax: maximum inhibition at 30 µM standardized to VU0606170 (100%). Format: cell-based. The source says:
Development of a useful SLACK inhibitor in vivo tool will require potent activity at the corresponding mouse ortholog as studies in appropriate mouse models will be critical. Thus, we evaluated analogs 32 and 48 in our APC assay using CHO cells stably expressing mouse WT SLACK (Table 6). […] We were also eager to evaluate the same compounds with regard to their ability to inhibit clinically relevant GOF SLACK mutants. Both the C-terminus A934T mutant and transmembrane G288S mutant have been associated with clinical cases of EIMFS [3, 7].
Automated patch-clamp recording was performed with a SyncroPatch 768 PE system (Nanion, Munich, Germany) as previously described. Whole-cell recordings were performed at room temperature. Cells were harvested by first washing with PBS without Mg^2+ or Ca^2+ (Gibco, Billings, MT, USA) to remove cell culture media, followed by dissociation with TryPLE (Gibco, Billings, MT, USA). Cells were then resuspended and diluted to 100,000 cells/mL in external solution. External solution contained 105 mM NaCl, 4 mM KCl, 1 mM MgCl2, 5 mM CaCl2, 10 mM HEPES, and 40 mM N-Methyl-D-glucamine chloride, titrated to pH of 7.4 and osmolarity of 300 mOsm/kg; internal solution contained 70 mM NaCl, 70 mM KF, 10 mM KCl, 5 mM EGTA, and 5 mM HEPES, titrated to a pH of 7.2 and osmolarity of 295 mOsm/kg.
The APC protocol was set as follows: Cells were held at a […] of −80 mV for 100 ms, then a ramp protocol was performed from −100 mV to 80 mV at 0.4 mV/ms, followed by holding the cell at −80 mV for another 100 ms, then steps were performed at −20 mV, 0 mV, +20 mV, +40 mV, and +60 mV for 100 ms of each step. Whole-cell currents were measured at 0 mV and normalized to current after external buffer addition. […] To obtain the concentration-response relationship graphs and IC50 values, we take the median value of the last 7 current amplitude values obtained for each set of data points collected for a given concentration at a particular step.

For a further assay, the target named is WT hSLACK (Homo sapiens, UniProt Q5JUK3). The experiment in a line: Whole-cell automated patch-clamp (APC) in CHO cells stably expressing WT hSLACK. Format: cell-based. The following applies: range across the three variants, APC; read-out: IC50 values across WT, A934T, and G288S SLACK. In outline:
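CHO-K1 cells stably expressing human SLACK were whole-cell recorded at room temperature with Na/NMDG external solution pH 7.4 and KF-based internal pH 7.2. Concentrations 0.125–30 μM in half-log steps, ≥3 cells each; ramp and step protocol from −80 mV holding, current at 0 mV normalized to post-buffer current, IC50 from median of last 7 amplitudes.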
For orientation: In patch-clamp work, channel activity is measured electrically.

WT hSLACK, sequence (Q5JUK3 whole entry): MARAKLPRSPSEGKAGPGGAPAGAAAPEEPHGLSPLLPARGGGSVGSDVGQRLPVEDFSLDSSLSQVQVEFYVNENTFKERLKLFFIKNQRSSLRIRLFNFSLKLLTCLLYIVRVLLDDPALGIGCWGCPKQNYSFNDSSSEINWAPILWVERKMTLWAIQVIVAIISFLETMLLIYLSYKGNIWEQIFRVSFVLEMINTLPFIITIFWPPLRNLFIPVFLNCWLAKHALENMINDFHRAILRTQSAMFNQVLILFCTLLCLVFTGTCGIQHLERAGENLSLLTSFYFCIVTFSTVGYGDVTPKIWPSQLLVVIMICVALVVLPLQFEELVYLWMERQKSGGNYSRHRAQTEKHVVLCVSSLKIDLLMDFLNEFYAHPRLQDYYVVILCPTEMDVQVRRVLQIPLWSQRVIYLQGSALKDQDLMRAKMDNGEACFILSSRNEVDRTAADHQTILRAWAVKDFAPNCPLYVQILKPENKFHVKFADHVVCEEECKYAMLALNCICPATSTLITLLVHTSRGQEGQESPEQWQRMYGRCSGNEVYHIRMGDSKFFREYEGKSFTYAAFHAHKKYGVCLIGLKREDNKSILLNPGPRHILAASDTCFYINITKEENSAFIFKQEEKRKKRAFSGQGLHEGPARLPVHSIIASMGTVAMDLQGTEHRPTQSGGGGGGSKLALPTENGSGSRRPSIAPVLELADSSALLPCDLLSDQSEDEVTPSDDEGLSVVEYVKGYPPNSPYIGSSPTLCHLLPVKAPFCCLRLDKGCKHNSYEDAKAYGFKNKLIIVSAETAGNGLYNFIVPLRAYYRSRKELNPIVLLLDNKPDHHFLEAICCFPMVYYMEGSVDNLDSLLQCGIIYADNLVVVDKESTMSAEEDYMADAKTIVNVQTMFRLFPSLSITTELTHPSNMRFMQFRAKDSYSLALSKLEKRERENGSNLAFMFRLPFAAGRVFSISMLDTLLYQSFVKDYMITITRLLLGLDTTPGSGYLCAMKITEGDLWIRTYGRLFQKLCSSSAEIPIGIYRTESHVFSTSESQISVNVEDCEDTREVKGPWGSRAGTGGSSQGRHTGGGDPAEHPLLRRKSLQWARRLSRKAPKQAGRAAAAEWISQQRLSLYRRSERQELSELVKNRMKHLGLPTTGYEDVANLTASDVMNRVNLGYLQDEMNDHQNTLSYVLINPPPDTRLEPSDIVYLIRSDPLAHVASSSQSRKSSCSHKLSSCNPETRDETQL

Usually IC50 stands for the concentration at which inhibition is half-maximal. At mouse WT SLACK, `COc1cccc(Cn2c(=O)c3c(nc(N(C)Cc4ccccc4)n3C)n(C)c2=O)c1` [Analog 32] displayed an IC50 of 1400 nM and an Imax of 100%.

Turning to `CN(Cc1cccc(F)c1)c1nc2c(c(=O)n(Cc3ccccc3)c(=O)n2C)n1C` [Analog 48], on mouse WT SLACK, the IC50 turned out to be 1300 nM and the Imax is 100%.

Consider `CCCCN(Cc1ccc(F)cc1)c1nc2c(c(=O)n(Cc3cccc(OC)c3)c(=O)n2C)n1C` [Analog 80], for which the IC50 at WT hSLACK fell in the range of 590 to 710 nM.

For the origin of these results see PMC11173529, “Structure–Activity Relationship Studies in a Series of Xanthine Inhibitors of SLACK Potassium Channels” (Molecules, 2024).
